Here are results for one molecule from US20140065655A1, “SCREENING METHOD FOR SUBSTANCE ACTING ON MAINTENANCE OF EPITHELIAL PROPERTIES OF CELL” (SCIVAX CORPORATION, priority 2012, published 2014).

The subject of experiment [1] is human-lung-cancer-cells derived strain A549. Nature of the experiment: Effect of epithelial-mesenchymal transition inhibitor on morphology and hypoxic area (LOX-1 red signal) of spheroids on NanoCulture plate. The format is cell-based. The procedure: 5-%-FBS-containing DMEM culture medium and 1.0-%-Matrigel (registered trademark) containing DMEM culture medium were added in respective wells of a cell culture vessels NanoCulture (registered trademark) plate (made by SCIVAX corporation, 384-well plate, material of concavity-convexity structure surface=polymethylpentene (TPX made by MITSUI Chemical Co., Ltd.), planar shape of concavo-convex structure=square, width between unit structures (line width)=700 nm, minimum internal diameter of unit structure=3 μm, and depth=1 μm) by 25 μl, and were subjected to centrifugal force for five minutes at 1000×g.
A cell suspension having human-lung-cancer-cells derived strain A549 adjusted to 13.5×10^4 cells/ml by a 5-%-FBS-containing DMEM culture medium was added to each well of the above-explained plate by 25 μl (the number of cells was 3.4×10^3 cells/well, and the final concentration of the culture medium additive was 5% FBS and 0.5% Matrigel).
At the third day of the culturing, TGF-β2 (made by R&D systems corporation, 302-B2-002) and TNF-α (made by R&D systems corporation, 210-TA-010) which were epithelial-mesenchymal transition inducers were added to each well in such a way that a final concentration became 5 ng/ml and 10 ng/ml, respectively. While at the same time, SB431542 (made by Miltenyi Biotec corporation, 130-095-561) that was an inhibitor of TGF-β2 was added in such a way that a final concentration became 10 μM.
Dimethyl-sulfoxide was added to all wells where no SB431542 was added in such a way that a final concentration became 0.1%.
At the fifth day of the culturing, a hypoxic area detection reagent LOX-1 (made by SCIVAX corporation) was added to each well in such a way that a final concentration became 2 μM. LOX-1 is a reagent that contains iridium complex which emits red phosphorescence.
An observation through a fluorescent microscope was carried out at the sixth day of the culturing.

For the next experiment, the system named is E-cadherin. Briefly: qRT-PCR expression level of E-cadherin gene (epithelial marker) in A549 spheroids. The following applies: A549, SB431542 10 μM with TGF-β2 5 ng/ml and TNF-α 10 ng/ml, sixth day, corrected by TBP (FIG. 6). The format is cell-based, human. The procedure:
(§1) In order to verify whether or not a change in the morphology of the spheroid confirmed in the second example reflects an epithelial-mesenchymal transition and an epithelial-mesenchymal transition inhibition, a result of measuring an expression level of a gene that is known as an epithelial or mesenchymal marker through qRT-PCR is shown in FIGS. 6 to 9. The processes from (1) pre-incubation to (3) addition of the epithelial-mesenchymal transition inducer and inhibitor were carried out likewise the second example. Next, at the sixth day of the culturing, all RNAs were extracted from each sample using RNeasy Plus Mini Kit (made by QIAGEN corporation), and such RNAs having undergone reverse transcription using PrimeScript RT reagent Kit (made by TAKARABIO Inc.) were used for qRT-PCR. SYBER Premix Ex Tagll (made by TAKARABIO Inc.) was used for PCR. Moreover, Thermal Cycler Dice (made by TAKARABIO Inc.) was used for a reaction and a detection. Note that data is corrected by the expression level of internal standard gene (TBP), and is shown as a relative value when the expression level of the control is taken as 1.
For orientation: Quantitative PCR measures a nucleic acid by following its amplification.

The next experiment has as its system N-cadherin. Nature of the experiment: qRT-PCR expression level of N-cadherin gene (mesenchymal marker) in A549 spheroids. Format: cell-based, human. The following applies: A549, SB431542 10 μM with TGF-β2 5 ng/ml and TNF-α 10 ng/ml, sixth day, corrected by TBP (FIG. 7). The procedure: as §1
Setting [2] is: A549, SB431542 10 μM with TGF-β2 5 ng/ml and TNF-α 10 ng/ml, LOX-1 2 μM, sixth day.

On to `NC(=O)c1ccc(-c2nc(-c3ccc4c(c3)OCO4)c(-c3ccccn3)[nH]2)cc1` [SB431542], for which, in experiment [1] (A549, SB431542 10 μM with TGF-β2 5 ng/ml and TNF-α 10 ng/ml added at third day, observed sixth day, compared with well where no inhibitor was added), the “morphology of spheroids (bright field image)” value is “the collapse of spheroids were suppressed and the contours of the spheroids had a small concavity and convexity”. Further, in experiment [1] (setting [2]), the “red intensity and red area (hypoxic area, LOX-1, fluorescent field image)” value was “the red intensity was high and the red area was large”; the “red signal (quantified, FIG. 5) relative to the well where no inhibitor was added” value is listed as “about twice”. The “expression level of E-cadherin” value in the experiment on E-cadherin is recorded as ~60 % of the control. In addition, the “expression level of N-cadherin” value with N-cadherin is on record as “decreased to substantially same level as that of the control”.
